Data on 13 molecules can be found in patent publication US20110039763A1, “TARGETED ANTIMICROBIAL MOIETIES” (C3 JIAN, INC., priority 2009, published 2011).

“Also recorded” adds a separate entry of the source.

For experiment [1], the system named is microorganisms. In words: Peptide activities: targeting/binding, antimicrobial, growth or phenotype altering (Tables 7, 8). Format: cell-based. The note with it: peptides having multiple activities.
The subject of experiment [2] is microorganisms. In words: Morphology, biofilm and growth disrupting peptides (Table 5). Details: key: A: Peptide aggregates; B: Less hyphal formation; Clumps; Diffuse clumps and small polyps; F: Diffuse growth; H: Thin; I: Growth inhibition; Microcolony formation; Rippled; Small polyps; Thick; W: Halo formation on top, microlonies on bottom. Format: cell-based. The text has this:
In certain embodiments peptides that induce alterations in phenotype or other biological activities can also be used as antimicrobial effector moieties.

Experiment [3] has as its system microorganisms. In words: Targeting peptide binding to target microorganisms (Tables 3, 10, 12). The note with it: microorganism(s) the targeting peptide binds; binding in aqueous buffers varied with peptide solubility, preferably 1x PBS.

With “PF-C142: peptide having multiple activities (chain 1 DFPPLSFFRRRFHAYTAPIDNFFGANPF; chain 2 DFPPLSFFRRRFHAYTAPIDNFFGANPF; Peptide with targeting and/or antimicrobial activity)”, in the experiment on microorganisms [1], the Activities result is on record as “G B”. In addition, in the experiment with microorganisms [2] (S. mutans), the “Organism, effect” value is “S. mutans (I)”. Besides, in the experiment on microorganisms [3], the “Target(s)” value is recorded as “A. naeslundii; also recorded: F. nucleatum; also recorded: P. gingivalis; also recorded: S. mutans; also recorded: T. denticola”.
For the molecule “PF-C143: peptide having multiple activities (chain 1 VVFGGGDRLV; chain 2 VVFGGGDRLV; Peptide with targeting and/or antimicrobial activity)”, in the experiment with microorganisms [1], the Activities entry is listed as “G B”. Besides, in the experiment on microorganisms [2] (F. nucleatum), the “Organism, effect” value was “F. nucleatum (C)”. Besides, the “Target(s)” value in the experiment on microorganisms [3] is given as “A. naeslundii; also recorded: F. nucleatum; also recorded: P. gingivalis; also recorded: S. mutans; also recorded: T. denticola”.
On to “PF-C145: peptide having multiple activities (chain 1 YGKESDP; chain 2 YGKESDP; Peptide with targeting and/or antimicrobial activity)”, for which, in the experiment on microorganisms [1], the Activities result is reported as “G B”. For the same molecule, the figures for the “Organism, effect” value in the experiment on microorganisms [2] (F. nucleatum) and in the experiment with microorganisms [2] (S. mutans) were “F. nucleatum (C)” and “S. mutans (I)”, respectively. The “Target(s)” value in the experiment on microorganisms [3] was “A. naeslundii; also recorded: F. nucleatum; also recorded: P. gingivalis; also recorded: S. mutans; also recorded: T. denticola”.
Turning to “PF-C281: peptide having multiple activities (chain 1 KKEKLLTAIRLQHRAEIRGYFTIFFLFFRI; chain 2 KKEKLLTAIRLQHRAEIRGYFTIFFLFFRI; Peptide with targeting and/or antimicrobial activity)”, the Activities result with microorganisms [1] is reported as “G B”. Also, in the experiment with microorganisms [2] (S. mutans), the “Organism, effect” value is on record as “S. mutans (F)”. In the experiment with microorganisms [3], the “Target(s)” value was “A. naeslundii; also recorded: F. nucleatum; also recorded: P. gingivalis; also recorded: S. mutans; also recorded: T. denticola”.
For “PF-C291: peptide having multiple activities (chain 1 HPFLTGTGCPLFLIFRLFFVKAYFSFTVF; chain 2 HPFLTGTGCPLFLIFRLFFVKAYFSFTVF; Peptide with targeting and/or antimicrobial activity)”, in the experiment on microorganisms [1], the Activities result is “G B”. The “Organism, effect” value in the experiment with microorganisms [2] (F. nucleatum) is reported as “F. nucleatum (T)”; in the experiment with microorganisms [2] (S. mutans), “S. mutans (F)”. For the same molecule, the “Target(s)” value in the experiment on microorganisms [3] was “A. naeslundii; also recorded: F. nucleatum; also recorded: P. gingivalis; also recorded: S. mutans”.
Regarding “SIGSMIGMYSFRHKTKHIKFTFGIPFILFLQFLLVYFYILK [PF-319]”, the Activities entry with microorganisms [1] was “G B”. The “Organism, effect: B. subtilis” value in the experiment on microorganisms [2] (B. subtilis) is “B. subtilis (C)”. The “Organism, effect: S. epidermidis” value in the experiment with microorganisms [2] is “S. epidermidis (C)”. Besides, the “Target(s)” value in the experiment on microorganisms [3] is “S. epidermidis; also recorded: B. subtilis; also recorded: C. difficile”.
With “VWENRKKYLENEIERHNVFLKLGQEVIKGLNALASRGR [PF-257]”, the Activities result in the experiment with microorganisms [1] is recorded as “G B”. Besides, in the experiment on microorganisms [2], the “Organism, effect: M. luteus” value is “M. luteus (R)”. The “Target(s)” value with microorganisms [3] is on record as “S. epidermidis”.

B1: PF-C180: peptide having multiple activities (peptide)
chain 1: TVEELDKAFTWGAAAALAIGVIAINVGLAAGYCYNNNDVF
chain 2: TVEELDKAFTWGAAAALAIGVIAINVGLAAGYCYNNNDVF
modifications: Peptide with targeting and/or antimicrobial activity
In the case of B1, the Activities result in the experiment on microorganisms [1] was “G B”. Further, the “Organism, effect” value in the experiment with microorganisms [2] (P. gingivalis) is given as “P. gingivalis (R)”; in the experiment on microorganisms [2] (S. mutans), “S. mutans (S)”. In addition, the “Target(s)” value in the experiment with microorganisms [3] is “F. nucleatum; also recorded: P. gingivalis; also recorded: S. mutans; also recorded: T. denticola”.

B2: PF-389: peptide having multiple activities (peptide)
chain 1: GLQFKEIAEEFHITTTALQQWHKDNGYPIYNKNNRK
chain 2: GLQFKEIAEEFHITTTALQQWHKDNGYPIYNKNNRK
modifications: Peptide with targeting and/or antimicrobial activity
For the molecule B2, in the experiment on microorganisms [1], the Activities result is given as “G B”. Besides, the “Organism, effect: C. jejuni” value in the experiment on microorganisms [2] (C. jejuni) is given as “C. jejuni (R)”. The “Organism, effect: E. faecalis” value in the experiment on microorganisms [2] (E. faecalis) is on record as “E. faecalis (R)”. For the same molecule, in the experiment on microorganisms [2] (MRSA), the “Organism, effect: MRSA” value is given as “MRSA (C)”. In addition, the “Organism, effect: S. epidermidis” value in the experiment with microorganisms [2] was “S. epidermidis (R)”. Besides, the “Organism, effect: S. pneumoniae” value with microorganisms [2] (S. pneumoniae) is reported as “S. pneumoniae (D)”. Besides, the “Target(s)” value with microorganisms [3] was “S. epidermidis and C. albicans and MRSA and S. pneumoniae and E. faecalis and C. jeikeium”.

B3: PF-C091: peptide having multiple activities (peptide)
chain 1: ASNTPRFVRLTLFNFYSKIWNVTHLFLFNNL
chain 2: ASNTPRFVRLTLFNFYSKIWNVTHLFLFNNL
modifications: Peptide with targeting and/or antimicrobial activity
For B3, the Activities entry in the experiment on microorganisms [1] is recorded as “G B”. Moreover, the “Organism, effect” value in the experiment on microorganisms [2] (F. nucleatum) is reported as “F. nucleatum (T)”. In the experiment with microorganisms [3], the “Target(s)” value is “A. naeslundii; also recorded: F. nucleatum; also recorded: P. gingivalis; also recorded: S. mutans; also recorded: T. denticola”.

B4: PF-270: peptide having multiple activities (peptide)
chain 1: MYLTPYAWIAVGSIFAFSVTTIKIGDQNDEKQKSHKNDVHKR
chain 2: MYLTPYAWIAVGSIFAFSVTTIKIGDQNDEKQKSHKNDVHKR
modifications: Peptide with targeting and/or antimicrobial activity
Consider B4, for which the Activities result in the experiment on microorganisms [1] is reported as “G B”. Besides, the “Organism, effect: M. luteus” value in the experiment with microorganisms [2] is given as “M. luteus (H)”. The “Target(s)” value in the experiment with microorganisms [3] is recorded as “S. epidermidis; also recorded: M. luteus; also recorded: P. aeruginosa”.

B5: PF-C181: peptide having multiple activities (peptide)
chain 1: KMRAGQVVFIYKLILVLLFYVLQKLFDLKKGCF
chain 2: KMRAGQVVFIYKLILVLLFYVLQKLFDLKKGCF
modifications: Peptide with targeting and/or antimicrobial activity
For B5, in the experiment with microorganisms [1], the Activities result is “G B”. Also, the “Organism, effect” value in the experiment on microorganisms [2] (F. nucleatum) is “F. nucleatum (T)”. Also, the “Target(s)” value in the experiment on microorganisms [3] was “P. gingivalis”.

B6: PF-C120: peptide having multiple activities (peptide)
chain 1: ASLSTMTFKVMELKELIILLCGLTMLMIQTEFV
chain 2: ASLSTMTFKVMELKELIILLCGLTMLMIQTEFV
modifications: Peptide with targeting and/or antimicrobial activity
On to B6, for which the Activities result in the experiment on microorganisms [1] is “G B”. For the same molecule, in the experiment with microorganisms [2] (F. nucleatum), the “Organism, effect” value is listed as “F. nucleatum (T)”. In the experiment on microorganisms [3], the “Target(s)” value is reported as “A. naeslundii; also recorded: F. nucleatum; also recorded: P. gingivalis; also recorded: S. mutans; also recorded: T. denticola”.
